Experimental data published in patent US5075322A, “Selenophen derivatives, a preparation process of the same and therapeutical compositions containing them” (Societe de Conseils de Recherches et d'Applications …, priority 1989, dated 1991).

How the values were obtained:
[1] = test system: ovalbumine-induced bronchospasm; assay: ovalbumine-induced bronchoconstriction in passively sensitized rats; type: in vivo; settings: for Percentage of bronchoconstriction / Percentage of effect: Table IV
Excerpt: (§1) The different symbols NS, *, ** and *** which may be found in the different tables, mean that the result is respectively not significative, significative, very significative and highly significative.

[2] = test system: B.S.A.-induced immune lethality in mice; assay: B.S.A.-induced immune lethality (anaphylactic shock) in actively sensitized mice; type: in vivo
Excerpt: as §1
At the same dose, ketotifen has no effect.

[3] = test system: histamine induced bronchospasm; assay: histamine-induced bronchospasm in artificially ventilated anaesthetized guinea pigs; type: in vivo; settings: for % of bronchoconstriction / % of effect: Table V, 0.1 mg/kg PO
Procedure: as §1
The kinetic results of the administration of compound XI and ketotifen by oral route at 0.1 mg/kg (P.O.), 1 to 27 h histamine injection (15 mg IV), are reported in table 5.

[4] = test system: ovalbumine-induced bronchospasm; assay: ovalbumine-induced bronchospasm in anaesthetized passively sensitized guinea-pigs; type: in vivo
Procedure: In the ovalbumine-induced bronchospasm in anaesthetized passively sensitized guinea-pigs, compound XI and ketotifen, administered 1 hour before the injection of ovalbumine, inhibit the bronchoconstriction (>90%) in a dose-dependant-manner respectively with following ED50 (P.O.)
For both products, the activity disappears at 24 hours.
The kinetic results, after administration by oral route of the said compounds at 0.1 mg/kg and 0.05 mg/kg (P.O.), for 1 to several hours before ovalbumine injection (1 mg/kg), are reported respectively in tables 1 and 2.
as §1

[5] = test system: histamine induced bronchospasm; assay: histamine-induced bronchospasm in artificially ventilated anaesthetized guinea pigs; type: in vivo; settings: Cavia porcellus, po; administered 1 hour before histamine (15 mg IV), P.O.; read-out: ED 50 (P.O.)
[6] = test system: ovalbumine-induced bronchospasm; assay: ovalbumine-induced bronchospasm in actively sensitized guinea pigs; type: in vivo; settings: Table III, 0.1 mg/kg PO
Excerpt: as §1

[7] = test system: PAF induced bronchospasm; assay: PAF-induced bronchospasm in artificially-ventilated anaesthetized guinea pigs; type: in vivo; settings: for Percentage of bronchoconstriction / Percentage of effect: Table VII, PAF 60 mg/kg IV
Excerpt: as §1

[8] = test system: rat washed platelets; assay: PAF-induced aggregation of rat washed platelets in vitro; type: cell-based; settings: Platelet, PAF 5.10^-10 M
Excerpt: In vitro: effects on aggregation (IC50) induced by PAF (5·10^-10 M), rat washed platelets are as follow: IC50 Compound XI 2.10^-6 M. IC50 Ketotifen 10^-5 M.

[9] = Table I, 0.1 mg/kg PO, pretreatment 1 h
[10] = Table I, 0.1 mg/kg PO, pretreatment 3 h
[11] = Table I, 0.1 mg/kg PO, pretreatment 6 h
[12] = Table I, 0.1 mg/kg PO, pretreatment 9 h
[13] = Table I, 0.1 mg/kg PO, pretreatment 15 h
[14] = Table I, 0.1 mg/kg PO, pretreatment 18 h
[15] = Table I, 0.1 mg/kg PO, pretreatment 21 h
[16] = Table I, 0.1 mg/kg PO, pretreatment 24 h
[17] = Table II, 0.05 mg/kg PO, pretreatment 1 h
[18] = Table II, 0.05 mg/kg PO, pretreatment 3 h
[19] = Table II, 0.05 mg/kg PO, pretreatment 6 h
[20] = Table II, 0.05 mg/kg PO, pretreatment 9 h
[21] = Table II, 0.05 mg/kg PO, pretreatment 15 h
[22] = Table II, 0.05 mg/kg PO, pretreatment 18 h
[23] = Table II, 0.05 mg/kg PO, pretreatment 21 h

In the case of COc1ccc(CCN2CCC(Nc3nc4ccccc4n3Cc3ccc(F)cc3)CC2)cc1 [Astemizole], the Percentage of bronchoconstriction ([1]; 5 mg/kg PO) is reported as 8.6 ± 2.5% and the Percentage of effect ([1]; 5 mg/kg PO) is reported as -76.0%.

In the case of c1ccc2c(c1)Sc1ccccc1N2CC1CN2CCC1CC2 (stereo not drawn) [Mequitazine], the “Mortality at 24 hours, % of mortality” value ([2]; 2.5 mg/kg PO) is reported as 30%, the “Mortality at 24 hours, % of variation” value ([2]; 2.5 mg/kg PO) is reported as -51.2% and the “Mortality at 24 hours, number of killed” value ([2]; 2.5 mg/kg PO) is reported as 3/10. For the same compound, the “Mortality at 24 hours, % of mortality” value ([2]; 10 mg/kg PO) was 30%, the “Mortality at 24 hours, % of variation” value ([2]; 10 mg/kg PO) was -51.2% and the “Mortality at 24 hours, number of killed” value ([2]; 10 mg/kg PO) was 3/10.

For CN1CCC(=C2c3ccccc3CC(=O)c3sccc32)CC1 [ketotifen], the “% of bronchoconstriction” value ([3]; 1 h) was 2.1 ± 0.8%, the “% of effect” value ([3]; 1 h) was -97.4 ± 1.0% and the “% of bronchoconstriction” value ([3]; 3 h) was 0%. For the same compound, the “% of effect” value ([3]; 3 h) was -100 ± 0%, the “% of bronchoconstriction” value ([3]; 6 h) was 18.2 ± 13.3% and the “% of effect” value ([3]; 6 h) was -77.8 ± 16.2%. For the same compound, the “% of bronchoconstriction” value ([3]; 9 h) was 22.1 ± 14.1%, the “% of effect” value ([3]; 9 h) was -71.5 ± 14.1% and the “% of bronchoconstriction” value ([3]; 15 h) was 51.4 ± 16.7%. For the same compound, the “% of effect” value ([3]; 15 h) was -26.9 ± 16.7%, the “% of bronchoconstriction” value ([3]; 18 h) was 54.6 ± 13.3% and the “% of effect” value ([3]; 18 h) was -39.8 ± 14.8%. The “% of bronchoconstriction” value ([3]; 21 h) was 46.6 ± 14.9%, the “% of effect” value ([3]; 21 h) was -44.9 ± 17.6% and the “% of bronchoconstriction” value ([3]; 24 h) was 63.7 ± 15.1%. The “% of effect” value ([3]; 24 h) was -3.0 ± 23.1%, the “% of bronchoconstriction” value ([3]; 27 h) was 83.4 ± 5.9% and the “inhibition of bronchoconstriction (in words)” value ([3]; administered 1 hour before histamine (15 mg IV)) was “inhibit significantly the bronchoconstriction in a dose-dependant-manner”. The “duration of maximum effect” value ([3]; during only the first hours, 0.1 mg/kg P.O.) was 3 h, the “time at which the activity disappears” value ([4]; 0.1 mg/kg and 0.05 mg/kg P.O.) was 24 h and the ED50 ([4]; Cavia porcellus, po, administered 1 hour before ovalbumine, P.O., passively sensitized guinea-pigs, read-out: ED50 (P.O.)) was 0.0941 µmol/kg. For the same compound, the “% of bronchoconstriction” value [4, 9] was 8.3 ± 3.2%, the “% of effect” value [4, 9] was -90.2 ± 3.8% and the “% of bronchoconstriction” value [4, 10] was 7.3 ± 3.0%. The “% of effect” value [4, 10] was -88.3 ± 4.8%, the “% of bronchoconstriction” value [4, 11] was 31.9 ± 17.9% and the “% of effect” value [4, 11] was -48.8 ± 28.8%. The “% of bronchoconstriction” value [4, 12] was 66.9 ± 19.7%, the “% of effect” value [4, 12] was -25.1 ± 22.0% and the “% of bronchoconstriction” value [4, 13] was 77.5 ± 10.6%. The “% of effect” value [4, 13] was -5.9 ± 13.3%, the “% of bronchoconstriction” value [4, 14] was 54.0 ± 18.6% and the “% of effect” value [4, 14] was -44.3 ± 19.2%. For the same compound, the “% of bronchoconstriction” value [4, 15] was 88.3 ± 7.6%, the “% of effect” value [4, 15] was -8.8 ± 7.9% and the “% of bronchoconstriction” value [4, 16] was 67.3 ± 15.0%. For the same compound, the “% of effect” value [4, 16] was “+8.3 ± 24.0%”, the “% of bronchoconstriction” value [4, 17] was 44.9 ± 15.9% and the “% of effect” value [4, 17] was -49.2%. The “% of bronchoconstriction” value [4, 18] was 5.7 ± 1.7%, the “% of effect” value [4, 18] was -93.6% and the “% of bronchoconstriction” value [4, 19] was 82.9 ± 14.0%. The “% of effect” value [4, 19] was -14.3%, the “% of bronchoconstriction” value [4, 20] was 80.3 ± 19.7% and the “% of effect” value [4, 20] was -17.1%. For the same compound, the “% of bronchoconstriction” value [4, 21] was 64.3 ± 18.3%, the “% of effect” value [4, 21] was -2.4% and the “% of bronchoconstriction” value [4, 22] was 100 ± 0%. For the same compound, the “% of effect” value [4, 22] was “+2.0%”, the “% of bronchoconstriction” value [4, 23] was 94.4 ± 3.2% and the “% of effect” value [4, 23] was -3.2%. The inhibition of bronchoconstriction ([4]; administered 1 hour before ovalbumine, P.O., dose-dependent) was > 90%, the ED50 [5] was 0.0635 µmol/kg and the “% of bronchoconstriction” value ([6]; pretreatment 1 h) was 3.6 ± 1.2%. The “% of effect” value ([6]; pretreatment 1 h) was -95.8 ± 1.4%, the “% of bronchoconstriction” value ([6]; pretreatment 3 h) was 3.3 ± 0.5% and the “% of effect” value ([6]; pretreatment 3 h) was -95.6 ± 0.7%. For the same compound, the “% of bronchoconstriction” value ([6]; pretreatment 6 h) was 42.1 ± 19.3%, the “% of effect” value ([6]; pretreatment 6 h) was -43.9 ± 25.8% and the “% of bronchoconstriction” value ([6]; pretreatment 9 h) was 83.2 ± 16.1%. The “% of effect” value ([6]; pretreatment 9 h) was -8.8 ± 17.6%, the “% of bronchoconstriction” value ([6]; pretreatment 15 h) was 77.5 ± 14.8% and the “% of effect” value ([6]; pretreatment 15 h) was -9.0 ± 17.4%. For the same compound, the “% of bronchoconstriction” value ([6]; pretreatment 18 h) was 64.5 ± 19.5%, the “% of effect” value ([6]; pretreatment 18 h) was “+17.9 ± 35.7%” and the “% of bronchoconstriction” value ([6]; pretreatment 21 h) was 73.6 ± 15.5%. The “% of effect” value ([6]; pretreatment 21 h) was “+34.4 ± 28.5%”, the “Mortality at 24 hours, % of mortality” value ([2]; 0.250 mg/kg PO) was 50% and the “Mortality at 24 hours, % of variation” value ([2]; 0.250 mg/kg PO) was -18.7%. The “Mortality at 24 hours, number of killed” value ([2]; 0.250 mg/kg PO) was 5/10, the “protective effect (in words)” value ([2]; 0.275 mg/kg P.O.) was “has no effect” and the “Mortality at 24 hours, % of mortality” value ([2]; 0.500 mg/kg PO) was 40%. The “Mortality at 24 hours, % of variation” value ([2]; 0.500 mg/kg PO) was -35%, the “Mortality at 24 hours, number of killed” value ([2]; 0.500 mg/kg PO) was 4/10 and the “inhibition of PAF induced bronchospasm (in words)” value ([7]; 1 hour before PAF, 0.1 mg/kg) was “less active”. For the same compound, the Percentage of bronchoconstriction ([7]; 0.1 mg/kg PO) was 63.5 ± 9.6%, the Percentage of effect ([7]; 0.1 mg/kg PO) was -18.9% and the Percentage of bronchoconstriction ([7]; 1 mg/kg PO) was 26.2 ± 14.8%. For the same compound, the Percentage of effect ([7]; 1 mg/kg PO) was -66.5%, the IC50 [8] was 10 µM and the Percentage of bronchoconstriction ([1]; 0.1 mg/kg PO) was 24.7 ± 5.1%. For the same compound, the Percentage of effect ([1]; 0.1 mg/kg PO) was -31.0%, the Percentage of bronchoconstriction ([1]; 1 mg/kg PO) was 46.3 ± 11.0% and the Percentage of effect ([1]; 1 mg/kg PO) was “+29.3%”. The “inhibition of bronchoconstriction (in words)” value ([1]; passively sensitized rats) was “has no effect”.
